18 compounds from ChEMBL document CHEMBL1158561, “Synthesis of 4-(3-biaryl)quinoline sulfones as potent liver X receptor agonists” (Bioorg Med Chem Lett, 2010) can be followed below.

Bounds are passed on as bounds.

In one data set the test system is Huh-7. Briefly: Upregulation of SREB1c mRNA level in human HuH7 cells. Type of data set: functional, cell-based.
In the next data set the test system is HepG2. Briefly: cells. Particulars: Homo sapiens.
The next data set relates to J774. Nature of the data set: cells. To be noted: Mus musculus.
Data set [1] can be described thus: Half life in rat liver microsome. Type of data set: ADME. Particulars: liver microsomes. (In general: Liver microsomes are a subcellular fraction often used to study metabolism.)
Data set [2] concerns the target T1, Oxysterols receptor LXR-alpha (Homo sapiens, UniProt Q13133).
T1 sequence (Q13133 whole entry): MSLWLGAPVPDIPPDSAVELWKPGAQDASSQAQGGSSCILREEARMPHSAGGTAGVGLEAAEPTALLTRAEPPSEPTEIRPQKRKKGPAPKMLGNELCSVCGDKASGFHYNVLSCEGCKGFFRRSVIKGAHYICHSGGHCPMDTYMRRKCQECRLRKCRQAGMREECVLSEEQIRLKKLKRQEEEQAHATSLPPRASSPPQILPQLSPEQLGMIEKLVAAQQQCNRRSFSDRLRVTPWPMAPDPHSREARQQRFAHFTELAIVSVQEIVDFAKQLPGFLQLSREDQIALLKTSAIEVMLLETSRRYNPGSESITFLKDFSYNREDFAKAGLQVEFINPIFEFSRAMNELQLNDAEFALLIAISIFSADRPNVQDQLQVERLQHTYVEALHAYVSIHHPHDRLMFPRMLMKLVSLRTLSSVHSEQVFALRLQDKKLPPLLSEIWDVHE
Nature of the data set: Displacement of [3H]T0901317 from LXRalpha ligand binding domain. A general note: Displacement assays read how much labelled ligand stays bound in the presence of the test substance.

Data set [3] is described as follows: Half life in human liver microsome. To be noted: liver microsomes. Type of data set: ADME.
Data set [4] can be described thus: Half life in C57 mouse at 10 mg/kg, po. Particulars: in vivo. Details: dose 10 mg/kg, route oral. Type of data set: ADME, organism-based.
A short description of data set [5]: AUC (0 to infinity) in C57 mouse at 10 mg/kg, po. Type of data set: ADME, organism-based. To be noted: plasma. Details: time infinity, dose 10 mg/kg, route oral.
Data set [6] in a line: Oral bioavailability in C57 mouse at 10 mg/kg. To be noted: in vivo. Type of data set: ADME, organism-based.
Data set [7] is described as follows: Cmax in C57 mouse at 10 mg/kg, po. Type of data set: ADME, organism-based. Details: dose 10 mg/kg, route oral. Particulars: in vivo.
Data set [8] can be described thus: Tmax in C57 mouse at 10 mg/kg, po. Type of data set: ADME, organism-based. On the set-up: dose 10 mg/kg, route oral. To be noted: in vivo.
Data set [9] deals with Oxysterols receptor LXR-beta (Homo sapiens, UniProt P55055). Nature of the data set: Displacement of [3H]T0901317 from LXRbeta ligand binding domain.
Chain of Oxysterols receptor LXR-beta (P55055 whole entry, the tested form may be a part): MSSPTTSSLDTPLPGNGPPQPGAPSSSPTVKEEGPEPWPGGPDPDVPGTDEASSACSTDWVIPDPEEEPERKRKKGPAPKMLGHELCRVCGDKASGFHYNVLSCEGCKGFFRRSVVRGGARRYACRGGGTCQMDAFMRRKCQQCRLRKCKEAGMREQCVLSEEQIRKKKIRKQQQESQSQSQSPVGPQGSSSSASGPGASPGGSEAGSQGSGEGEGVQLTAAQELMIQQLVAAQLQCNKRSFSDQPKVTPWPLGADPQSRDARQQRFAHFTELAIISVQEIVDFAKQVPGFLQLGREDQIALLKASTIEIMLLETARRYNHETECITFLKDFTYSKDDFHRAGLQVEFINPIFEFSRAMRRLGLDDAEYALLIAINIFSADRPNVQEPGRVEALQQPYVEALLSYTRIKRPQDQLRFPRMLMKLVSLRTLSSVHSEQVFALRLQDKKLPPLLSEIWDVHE

In general, EC50 refers to the midpoint of the concentration-response curve. Higher therefore signals lower potency in that assay. One may read the half-life as the time in which the quantity being followed falls by half. The low end stands for rapid decline, the high end for slow decline. For the compound `Cc1cnc2c(C(F)(F)F)cccc2c1-c1cccc(-c2cccc(S(C)(=O)=O)c2)c1`, the EC50 was 0.052 µM in the data set with Huh-7, 0.023 µM with HepG2 and 0.023 µM with J774. For the same compound, the half-life in data set [1] is above 30 min.

Usually IC50 stands for the concentration needed to halve the response being measured. A high value points to lower potency. Turning to `Cc1cnc2c(C(F)(F)F)cccc2c1-c1cccc(-c2ccc(S(C)(=O)=O)cc2)c1`, in data set [2], the IC50 is above 1 µM. Further, the half-life in data set [1] and in [3] was above 30 min each time.

For orientation: AUC(0-inf) means total exposure, with the tail of the curve extrapolated. By bioavailability is commonly meant dose-corrected exposure relative to a reference, in per cent. By Cmax is commonly meant the highest concentration seen after dosing. What is called Tmax is the time from dosing to the highest level. On to `CS(=O)(=O)c1cccc(-c2cccc(-c3ccnc4c(C(F)(F)F)cccc34)c2)c1`, for which the EC50 in the data set with Huh-7 came to 0.44 µM; with HepG2, 0.077 µM; with J774, 0.077 µM. The half-life is 834 min in data set [4], above 30 min in [1] and above 30 min in data set [3]. In data set [5], this compound gave an AUC(0-inf) of 3010 ng·h/mL. In [6], this compound displayed a bioavailability of 100%. The compound further showed a Cmax in data set [7] of 106 ng/mL. Moreover, the Tmax in data set [8] was 60 min.

Regarding `CS(=O)(=O)c1ccc(-c2cccc(-c3ccnc4c(C(F)(F)F)cccc34)c2)cc1`, the IC50 in data set [2] and in data set [9] was above 1 µM in each case. In addition, the half-life in data set [1] and in data set [3] was above 30 min each time.

`CCCc1cnc2c(C(F)(F)F)cccc2c1-c1cccc(-c2cccc(S(C)(=O)=O)c2)c1`: the EC50 in the data set on Huh-7 came to 0.008 µM; in the data set with HepG2, 0.0004 µM; in the data set with J774 it was 0.0004 µM. The half-life in data set [1] and in data set [3] was above 30 min each time.

For the compound `CS(=O)(=O)c1cc(-c2cccc(-c3ccnc4c(C(F)(F)F)cccc34)c2)c(F)cc1F`, the EC50 in the data set on Huh-7 stood at 0.132 µM; in the data set with HepG2 it was 0.133 µM; in the data set with J774 it was 0.011 µM. Moreover, the half-life in [1] and in data set [3] was above 30 min each time.

On to `Cc1cnc2c(C(F)(F)F)cccc2c1-c1cccc(-c2ccc(F)c(S(C)(=O)=O)c2)c1`, for which the half-life in [1] is 19 min; in [3] it was above 30 min.

`Cc1cnc2c(C(F)(F)F)cccc2c1-c1cccc(-c2cc(S(C)(=O)=O)c(F)cc2F)c1`: the half-life in [1] and in [3] was above 30 min each time.

Regarding `CS(=O)(=O)c1cc(-c2cccc(-c3ccnc4c(C(F)(F)F)cccc34)c2)ccc1F`, the EC50 in the data set with HepG2 was 0.041 µM; in the data set with J774, 0.14 µM. For the same compound, the half-life in [1] is 12 min; in data set [3] it was above 30 min.

For the compound `CC(C)c1cnc2c(C(F)(F)F)cccc2c1-c1cccc(-c2cccc(S(C)(=O)=O)c2)c1`, the EC50 in the data set on Huh-7 was 0.006 µM; with HepG2, 0.0005 µM; in the data set on J774, 0.0005 µM. In addition, the half-life in [1] and in data set [3] was above 30 min each time.

Consider `CS(=O)(=O)c1cccc(-c2cccc(-c3c(Cc4ccccc4)cnc4c(C(F)(F)F)cccc34)c2)c1`, for which, in [1], the half-life turned out to be 16 min.

As for `CS(=O)(=O)c1ccc(-c2cccc(-c3c(Cc4ccccc4)cnc4c(C(F)(F)F)cccc34)c2)cc1`, the EC50 in the data set on Huh-7, in the data set with HepG2 and with J774 was 0.571 µM in each case. Moreover, the half-life was 7 min in data set [1] and 27 min in [3].

Take `CCc1cnc2c(C(F)(F)F)cccc2c1-c1cccc(-c2cccc(S(C)(=O)=O)c2)c1`: the figures for the EC50 with Huh-7, with HepG2 and in the data set on J774 were 0.008 µM, 0.0007 µM and 0.0007 µM, respectively. Further, the half-life in data set [1] and in data set [3] was above 30 min in each case.

As to `CCS(=O)(=O)c1cccc(-c2cccc(-c3ccnc4c(C(F)(F)F)cccc34)c2)c1`, the half-maximal effective concentration (EC50) in the data set on Huh-7 came to 0.521 µM; in the data set on HepG2 it was 0.156 µM; in the data set with J774 it was 0.156 µM. Further, the half-life in data set [1] and in data set [3] was above 30 min each time.

Regarding `CCS(=O)(=O)c1cccc(-c2cccc(-c3c(C)cnc4c(C(F)(F)F)cccc34)c2)c1`, the EC50 amounted to 0.25 µM with Huh-7, 0.19 µM with HepG2 and 0.19 µM with J774. For the same compound, the half-life in data set [1] and in [3] was above 30 min in each case.

Take `Cc1ccc(-c2cccc(-c3c(C)cnc4c(C(F)(F)F)cccc34)c2)cc1S(C)(=O)=O`: the half-life in data set [1] is 27 min; in [3] it was above 30 min.

`COc1ccc(-c2cccc(-c3c(C)cnc4c(C(F)(F)F)cccc34)c2)cc1S(C)(=O)=O` came in with an IC50 in data set [2] above 1 µM. In addition, in data set [3], the half-life was above 30 min.

Consider `O=S(=O)(c1ccccc1)N(CC(F)(F)F)c1ccc(C(O)(C(F)(F)F)C(F)(F)F)cc1` [T091317], for which the EC50 turned out to be 0.036 µM in the data set with Huh-7 and 0.107 µM with HepG2. Moreover, the half-life in data set [1] and in data set [3] was above 30 min each time.
